Common to all, as to assay type: functional, cell-based
A short description of test [1]: Cytotoxicity against human HL60 cells by MTT assay. To be noted: HL-60.
Test [2] in a line: Cytotoxicity against human NALM6 cells by MTT assay. Particulars: NALM-6. (Tetrazolium dyes change colour on reduction, which living cells bring about.)
The nature of test [3]: Cytotoxicity against human WM115 cells by MTT assay. Particulars: WM-115.

Experimental findings from ChEMBL document CHEMBL3352125, “Cytotoxic activity of substituted chalcones in terms of molecular electronic properties” (Bioorg Med Chem Lett, 2014) are described below.

One may read the IC50 as the concentration that inhibits the measured activity by half. High values mean weaker potency in that assay, low ones greater potency in that assay. With `O=C(/C=C/c1ccccc1)c1cc(O)ccc1O`, the IC50 in test [1] stood at 5.3 µM; in test [2] it was 5.5 µM; in test [3], 61.3 µM.
The like results for `O=C(/C=C/c1ccc(O)cc1)c1ccccc1O` were, in that order, 7.1 µM, 40.6 µM and 69.1 µM.
The like results for `O=C(/C=C/c1ccccc1Cl)c1ccccc1O` were, in that order, 7.7 µM, 6.1 µM and 7.6 µM.
As for `O=C(/C=C/c1ccc(Cl)cc1)c1ccccc1O`, the IC50 is 8.3 µM in test [1], 9.3 µM in test [2] and 48.9 µM in test [3].
As to `COc1ccc(/C=C/C(=O)c2ccccc2O)cc1`, the IC50 in test [1] was 48.7 µM; in test [2] it was 50.2 µM; in test [3], 60.5 µM.
`O=C(/C=C/c1ccc([N+](=O)[O-])cc1)c1ccccc1O`: the IC50 in test [1] worked out at 5.8 µM; in test [2] it was 6.9 µM; in test [3], 27.6 µM.
The corresponding values for `COc1cc(/C=C/C(=O)c2ccccc2O)cc(OC)c1OC` are 39.3 µM, 31.7 µM and 56.4 µM.
The like results for `O=C(/C=C/c1ccc(Br)cc1)c1ccccc1O` were, in that order, 7.3 µM, 6.8 µM and 50 µM.
The corresponding values for `O=C(/C=C/c1ccccc1)c1ccc(O)cc1O` [2',4'-DIHYDROXYCHALCONE] are 6.3 µM, 18 µM and 42 µM.
For `O=C(/C=C/c1ccccc1)c1ccccc1O` [2'-HYDROXYCHALCONE], the results for the concentration for half-maximal inhibition (IC50) in test [1], in test [2] and in test [3] were 18 µM, 37.5 µM and 40.8 µM, respectively.
For `O=C(/C=C/c1ccccc1)c1ccccc1` [CHALCONE], the values for the IC50 in test [1], in test [2] and in test [3] were 55.4 µM, 23.9 µM and 43.1 µM, respectively.
For the molecule `O=C1CCOc2ccccc21` [CHROMANONE], the IC50 in test [1] is 19.1 µM; in test [2], 8.2 µM; in test [3] it was 53.2 µM.
